Active and inactive are the calls of the source. The calls are words filed in the database; no cut-off is given here.
Legend:
U-251 [1] = experiment: Antiproliferative activity against human U251 cells assessed as mitochondrial dehydrogenase activity after 24 hrs by MTT assay; format: functional, cell-based
[2] = Antiproliferative activity against Albino Oxford rat peritoneal macrophages assessed as cell number after 48 hrs by crystal violet assay; format: cell-based; details: macrophage
U-251 [3] = experiment: Antiproliferative activity against human U251 cells assessed as cell number after 24 hrs by crystal violet assay; format: functional, cell-based
U-251 [4] = experiment: Antiproliferative activity against human U251 cells assessed as mitochondrial dehydrogenase activity after 72 hrs by MTT assay; format: functional, cell-based
[5] = Antiproliferative activity against Albino Oxford rat peritoneal macrophages assessed as mitochondrial respiration after 48 hrs by MTT assay; format: cell-based; details: macrophage
C6 [6] = experiment: Cell cycle arrest in rat C6 cells assessed as accumulation at S phase at 50 uM after 24 hrs by flow cytometry relative to control; format: functional
C6 [7] = experiment: Cell cycle arrest in rat C6 cells assessed as accumulation at G2/M phase at 50 uM after 24 hrs by flow cytometry relative to control; format: functional
C6 [8] = experiment: Antiproliferative activity against rat C6 cells assessed as cell number after 48 hrs by crystal violet assay; format: functional, cell-based; details: C6, 48 h
C6 [9] = experiment: Induction apoptosis in rat C6 cells assessed as caspase activation at 50 uM after 36 hrs by flow cytometry relative to control; format: functional
[10] = Antiproliferative activity against Albino Oxford rat primary astrocytes assessed as change in morphology by bright field microscopy; format: cell-based; details: astrocyte
C6 [11] = experiment: Induction of mitochondrial membrane potential depolarization in rat C6 cells assessed as increase in green to red fluorescence ratio at 50 uM after 24 hrs by flow cytometry; format: functional, cell-based
C6 [12] = experiment: Antiproliferative activity against rat C6 cells assessed as mitochondrial dehydrogenase activity after 72 hrs by MTT assay; format: functional, cell-based
C6 [13] = experiment: Cell cycle arrest in rat C6 cells assessed as accumulation at G0/G1 phase at 50 uM after 24 hrs by flow cytometry relative to control; format: functional
C6 [14] = experiment: Antiproliferative activity against rat C6 cells assessed as cell number after 72 hrs by crystal violet assay; format: functional, cell-based
C6 [15] = experiment: Antiproliferative activity against rat C6 cells assessed as cell number after 48 hrs by crystal violet assay in presence of N-acetyl-cysteine; format: functional, cell-based
C6 [16] = experiment: Antiproliferative activity against rat C6 cells assessed as caspase activation at 50 uM after 36 hrs by flow cytometry in presence of N-acetyl-cysteine; format: functional, cell-based
U-251 [17] = experiment: Antiproliferative activity against human U251 cells assessed as cell number after 72 hrs by crystal violet assay; format: functional, cell-based
[18] = Inhibition of bovine brain tubulin by microtubule depolymerization assay; design: species or system Bos taurus
C6 [19] = experiment: Induction apoptosis in rat C6 cells at 50 uM after 36 hrs by flow cytometry relative to control; format: functional
C6 [20] = experiment: Induction necrosis in rat C6 cells at 50 uM after 36 hrs by flow cytometry relative to control; format: functional
[21] = Antiproliferative activity against Albino Oxford rat primary astrocytes assessed as mitochondrial respiration after 48 hrs by MTT assay; format: cell-based; details: astrocyte
U-251 [22] = experiment: Antiproliferative activity against human U251 cells assessed as cell number after 48 hrs by crystal violet assay; format: functional, cell-based; details: U-251, 48 h
C6 [23] = experiment: Antiproliferative activity against rat C6 cells assessed as mitochondrial dehydrogenase activity after 24 hrs by MTT assay; format: functional, cell-based
C6 [24] = experiment: Antiproliferative activity against rat C6 cells assessed as cell number after 24 hrs by crystal violet assay; format: functional, cell-based
C6 [25] = experiment: Induction of reactive oxygen species production in rat C6 cells at 50 uM after 36 hrs by flow cytometry; format: functional, cell-based
[26] = Antiproliferative activity against Albino Oxford rat primary astrocytes assessed as cell number after 48 hrs by crystal violet assay; format: cell-based; details: astrocyte
C6 [27] = experiment: Induction of apoptosis in rat C6 cells assessed as change in morphology at 50 uM after 48 hrs by bright field microscopy; format: functional, cell-based

Question: With `COc1cc(O)c2c(=O)c3c(OC)c(O)ccc3oc2c1` [GETIACAULEIN] as the compound, how does the Activity (U-251 [1]) read?
Answer: Active

Question: What about the Activity [2] of the same compound?
Answer: Non-toxic

Question: What about the Activity (U-251 [3]) of the same compound?
Answer: Active

Question: And the Activity (U-251 [4])?
Answer: Active

Question: And the Activity [5]?
Answer: Non-toxic

Question: And the Activity (C6 [6])?
Answer: 5.8%

Question: What about the Activity (C6 [7]) of the same compound?
Answer: 18.8%

Question: And the IC50 (C6 [8])?
Answer: 56.6 µM

Question: What about the Activity (C6 [9]) of the same compound?
Answer: 6%

Question: And the Activity [10]?
Answer: Non-toxic

Question: And the Activity (C6 [11])?
Answer: Active

Question: And the Activity (C6 [12])?
Answer: Active

Question: What about the Activity (C6 [13]) of the same compound?
Answer: 73.2%

Question: What about the Activity (C6 [14]) of the same compound?
Answer: Active

Question: What about the Activity (C6 [15]) of the same compound?
Answer: Active

Question: And the Activity (C6 [16])?
Answer: Active

Question: What about the Activity (U-251 [17]) of the same compound?
Answer: Active

Question: What about the IC50 [18] of the same compound?
Answer: > 50 µM

Question: And the Activity (C6 [19])?
Answer: 4.5%

Question: What about the Activity (C6 [20]) of the same compound?
Answer: 5.5%

Question: And the Activity [21]?
Answer: Non-toxic

Question: What about the IC50 (U-251 [22]) of the same compound?
Answer: 53.2 µM

Question: What about the Activity (C6 [23]) of the same compound?
Answer: Active

Question: And the Activity (C6 [24])?
Answer: Active

Question: And the Activity (C6 [25])?
Answer: Active

Question: What about the Activity [26] of the same compound?
Answer: Non-toxic

Question: With `COc1cc(O[C@@H]2O[C@H](CO)[C@@H](O)[C@H](O)[C@H]2O)c2c(=O)c3c(OC)c(O)ccc3oc2c1` as the compound, how does the IC50 (C6 [8]) read?
Answer: > 100 µM

Question: What about the IC50 (U-251 [22]) of the same compound?
Answer: > 100 µM

Question: With `COc1cc(O[C@@H]2O[C@H](CO[C@@H]3OC[C@@H](O)[C@H](O)[C@H]3O)[C@@H](O)[C@H](O)[C@H]2O)c2c(=O)c3c(O)c(O)ccc3oc2c1` [ISOGENTIAKOCHIANOSIDE] as the compound, how does the IC50 (C6 [8]) read?
Answer: > 100 µM

Question: What about the IC50 (U-251 [22]) of the same compound?
Answer: > 100 µM

Question: With `CC(=O)O[C@H]1C(=O)[C@@]2(C)[C@H]([C@H](OC(=O)c3ccccc3)[C@]3(O)C[C@H](OC(=O)[C@H](O)[C@@H](NC(=O)c4ccccc4)c4ccccc4)C(C)=C1C3(C)C)[C@]1(OC(C)=O)CO[C@@H]1C[C@@H]2O` [PACLITAXEL] as the compound, how does the IC50 [18] read?
Answer: 2.4 µM

Question: Which IC50 (C6 [8]) does the source give for `COc1cc(O[C@@H]2O[C@H](CO[C@@H]3OC[C@@H](O)[C@H](O)[C@H]3O)[C@@H](O)[C@H](O)[C@H]2O)c2c(=O)c3c(OC)c(O)ccc3oc2c1` [GENTIABAVAROSIDE] here?
Answer: > 100 µM

Question: And the IC50 (U-251 [22])?
Answer: > 100 µM

Question: Which results are given for `COc1cc(O)c2c(=O)c3c(O)c(O)ccc3oc2c1` [GENTIAKOCHIANIN]?
Answer: Activity (U-251 [1]): Active; Activity [2]: Non-toxic; Activity (U-251 [3]): Active; Activity (U-251 [4]): Active; Activity [5]: Non-toxic; Activity (C6 [6]): 10.6%; Activity (C6 [7]): 52.5%; IC50 (C6 [8]): 31.4 µM; Activity (C6 [9]): 19.7%; Activity [10]: Non-toxic; Activity (C6 [11]): Active; Activity (C6 [12]): Active; Activity (C6 [13]): 33.7%; Activity (C6 [14]): Active; Activity (U-251 [17]): Active; IC50 [18]: 18 µM; Activity (C6 [19]): 24.2%; Activity (C6 [27]): Active; Activity (C6 [20]): 5.9%; Activity [21]: Non-toxic; IC50 (U-251 [22]): 27.3 µM; Activity (C6 [23]): Active; Activity (C6 [24]): Active; Activity (C6 [25]): Active; Activity [26]: Non-toxic

Question: What does the source list for `O=c1c2c(O)cc(O)cc2oc2c(O)ccc(O)c12` [DEMETHYLBELLIDIFOLIN]?
Answer: IC50 (C6 [8]): > 100 µM; IC50 [18]: > 50 µM; IC50 (U-251 [22]): > 100 µM

Question: With `COc1cc(O)c2c(=O)c3c(O)ccc(O)c3oc2c1` [BELLIDIFOLIN] as the compound, how does the IC50 (C6 [8]) read?
Answer: > 100 µM

Question: What about the IC50 [18] of the same compound?
Answer: > 50 µM

Question: What about the IC50 (U-251 [22]) of the same compound?
Answer: > 100 µM

Question: For `COc1cc(O)c2c(=O)c3c(OC)c(OC)ccc3oc2c1` [DECUSSATIN], which IC50 (C6 [8]) is on record?
Answer: > 100 µM

Question: And the IC50 (U-251 [22])?
Answer: > 100 µM

Reference: ChEMBL document CHEMBL1150249, “Antiglioma action of xanthones from Gentiana kochiana: Mechanistic and structure-activity requirements” (Bioorg Med Chem, 2008)
